What was measured:
[1] = cited from earlier work; for Activity as alpha-TE: alpha-tocopherol equivalents (TE), table from Vitamin E in Health and Disease, 1993, p. 21
[2] = Brain analysis of infant brain (tocopherol content and correlations); format: in vivo, human; settings: formula fed infant brain
Excerpt: Cholesterol is a major component of myelin, and thus, is a marker for extent of CNS myelination. Glutamate is a neurotransmitter, which is reported to stimulate neuron outgrowth and branching. […] Accordingly, an excessively high level of dietary gamma-tocopherol may hinder the brain uptake of RRR alpha-tocopherol, and thus, may hinder CNS development.
Most commercial infant formulas are fortified with synthetic alpha-tocopherols. It has been reported that the plasma […] of the 2R isomers are about equal for animals fed a diet containing synthetic alpha-tocopherols. These findings indicate that RRR alpha-tocopherol is preferably absorbed into the brain or it is metabolized at a much slower rate than RSR, RRS and RSS tocopherols.

share of the alpha-tocopherol in brain that is RRR alpha-tocopherol [2] | Structure (SMILES) | Activity as alpha-TE [1] [mg/mg compound] | assigned vitamin E activity ([1]; assigned reference activity)
– | CC(=O)Oc1c(C)c(C)c2c(c1C)CCC(C)(CCC[C@H](C)CCC[C@H](C)CCCC(C)C)O2 (mixture of isomers) [Synthetic alpha-tocopherol acetate, alpha-tocopherol acetate] | 0.74 | –
over 60% | Cc1c(C)c2c(c(C)c1O)CC[C@@](C)(CCC[C@H](C)CCC[C@H](C)CCCC(C)C)O2 [RRR alpha-tocopherol] | 1.0 | 1 mg alpha-tocopherol equivalent (TE) per milligram
– | CC(C)=CCC/C(C)=C/CC/C(C)=C/CC[C@]1(C)CCc2c(C)c(O)c(C)c(C)c2O1 [RRR alpha-tocotrienol] | 0.3 | –
– | Cc1cc(O)c(C)c2c1O[C@](C)(CCC[C@H](C)CCC[C@H](C)CCCC(C)C)CC2 [RRR beta-tocopherol] | 0.5 | –
– | CC(C)=CCC/C(C)=C/CC/C(C)=C/CC[C@]1(C)CCc2c(C)c(O)cc(C)c2O1 [RRR beta-tocotrienol] | 0.05 | –
– | Cc1cc(O)cc2c1O[C@](C)(CCC[C@H](C)CCC[C@H](C)CCCC(C)C)CC2 [RRR delta-tocopherol] | 0.03 | –
– | Cc1c(O)cc2c(c1C)O[C@](C)(CCC[C@H](C)CCC[C@H](C)CCCC(C)C)CC2 [RRR gamma-tocopherol] | 0.1 | –

— US10328049B2, “Infant nutritional product with RRR alpha-tocopherol” (ABBOTT LABORATORIES, priority 2013, dated 2019)
